Experimental data taken from patent US20140377340A1, “HLA-DR BINDING PEPTIDES AND THEIR USES” (priority 2007, published 2014).

Key:
purified HLA DRB1*0404 = molecular target: T1, purified HLA DRB1*0404 (Homo sapiens, UniProt P01903+P01911, A100R/A169T/F76Y/I96L/K127E/L162R/M171V/N62H/P40V/Q125Y/R42H/S133A/S149N/S66Y/V209L/W38E); assay: HLA-DR radioligand binding inhibition assay, DRB1*0404; details: IC50 nM purified HLA DRB1 *0404, purified HLA DRB1*0404
T1 construct: purified from EBV transformed homozygous cell lines or single MHC allele transfected 721.221, C1R, or fibroblast lines; made in house
Procedure, shortened: (§1)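 The probe, 1-10 nM radiolabeled peptide, was incubated with 1 μM to 1 nM HLA-DR for 2 days in the presence of protease inhibitors.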

purified HLA DRB1*0405 = molecular target: T2, purified HLA DRB1*0405 (Homo sapiens, UniProt P01903+P01911, A100R/A169T/D86S/F76Y/I96L/K127E/L162R/M171V/N62H/P40V/Q125Y/R42H/S133A/S149N/S66Y/V115G/V209L/W38E); assay: HLA-DR radioligand binding inhibition assay, DRB1*0405; details: IC50 nM purified HLA DRB1 *0405, purified HLA DRB1*0405
T2 construct: purified from EBV transformed homozygous cell lines or single MHC allele transfected 721.221, C1R, or fibroblast lines; made in house
Procedure, shortened: as §1

purified HLA DRB1*0701 = molecular target: T3, purified HLA DRB1*0701 (Homo sapiens, UniProt P01903+P01911, A100R/A102G/A103Q/D57E/D86V/E43K/F76Y/K127E/L162R/M171V/P40G/Q125H/Q99D/R33Q/R42Y/R54Q/S133A/S66F/T210M/V115G/Y107V/Y59L/Y89S); assay: HLA-DR radioligand binding inhibition assay, DRB1*0701; details: IC50 nM purified HLA DRB1 *0701, purified HLA DRB1*0701
T3 construct: purified from EBV transformed homozygous cell lines or single MHC allele transfected 721.221, C1R, or fibroblast lines; made in house
Procedure, shortened: as §1

purified HLA DRB1*0802 = molecular target: T4, purified HLA DRB1*0802 (Homo sapiens, UniProt P01903+P01911, A100R/A103L/A169T/F76Y/H45Y/I96F/K41T/L162R/M171V/P40S/Q125H/Q178H/Q39Y/Q99D/R218S/R42G/S66Y/V115G/W38E); assay: HLA-DR radioligand binding inhibition assay, DRB1*0802; details: IC50 nM purified HLA DRB1 *0802, purified HLA DRB1*0802
T4 construct: purified from EBV transformed homozygous cell lines or single MHC allele transfected 721.221, C1R, or fibroblast lines; made in house
Protocol: (§2) Instead, wells of an opaque white 96-well Optiplate (Packard) are coated with 3 μg (100 μl@ 30 μg/ml) of HLA-specific antibody (Ab) that “capture” complexes of radiolabeled MHC and unlabeled peptide transferred from the molecular binding assay plate in 100 μl of 0.05% NP40/PBS. After a 3-hour incubation period, the supernatant is decanted and scintillation fluid (Microscint 20) added. Captured complexes are then measured on a microplate scintillation and luminescence counter (TopCount NXTTM; Packard).
HLA-DR purification. Fifteen distinct HLA-DR molecules were used in quantitative assays to measure the binding of peptides to solubilized HLA-DR molecules. […] Briefly, columns of inactivated Sepharose CL4B and Protein A Sepharose were used as pre-columns. HLA-DR molecules were captured by passage of lysates over LB3.1 monoclonal antibody (anti-HLA-DRA) columns. Antibody columns were washed with 10 mM Tris-HCL, pH8.0 with 1% (v/v) NP-40, followed by PBS containing 0.4% (w/v) n-octylglucoside. […] The pH was reduced to 8.0 and the eluates were concentrated by centrifugation in Centriprep 30 concentrators at 2000 rpm (Amicon, Beverly, Mass.).
Briefly, 1-10 nM of radiolabeled peptide was co-incubated for 2 days at either room temperature or 37° C. with 1 μM to 1 nM purified HLA-DR molecules in the presence of a cocktail of protease inhibitors. Assays were performed at various pH conditions, ranging from pH 4 to pH 7. […] After incubation, the percentage of HLA-DR-bound radioactivity is determined by capturing HLA-DR/peptide complexes on Optiplates (Packard Instruments, Meriden, Conn.) coated with the LB3.1 antibody and determining bound counts per minute using the TopCount microscintillation counter (Packard Instruments). […] Competitor peptides are tested in 2-4 complete, independent experiments, at concentrations ranging from […].

purified HLA DRB1*0901 = molecular target: T5, purified HLA DRB1*0901 (Homo sapiens, UniProt P01903+P01911, A100R/A103E/D57H/D86V/F55Y/F60I/F76Y/I96F/K127E/L162R/M171V/P40D/Q125H/Q99R/R33Q/R42F/S133A/S66N/T210M/V115G/W38K/Y107V/Y59G/Y89S); assay: HLA-DR radioligand binding inhibition assay, DRB1*0901; details: IC50 nM purified HLA DRB1 *0901, purified HLA DRB1*0901
T5 construct: purified from EBV transformed homozygous cell lines or single MHC allele transfected 721.221, C1R, or fibroblast lines; made in house
Protocol: as §2
HLA-DR purification. Fifteen distinct HLA-DR molecules were used in quantitative assays to measure the binding of peptides to solubilized HLA-DR molecules. […] Briefly, columns of inactivated Sepharose CL4B and Protein A Sepharose were used as pre-columns. HLA-DR molecules were captured by passage of lysates over LB3.1 monoclonal antibody (anti-HLA-DRA) columns. Antibody columns were washed with 10 mM Tris-HCL, pH8.0 with 1% (v/v) NP-40, followed by PBS containing 0.4% (w/v) n-octylglucoside.
Briefly, 1-10 nM of radiolabeled peptide was co-incubated for 2 days at either room temperature or 37° C. with 1 μM to 1 nM purified HLA-DR molecules in the presence of a cocktail of protease inhibitors. Assays were performed at various pH conditions, ranging from pH 4 to pH 7. […] After incubation, the percentage of HLA-DR-bound radioactivity is determined by capturing HLA-DR/peptide complexes on Optiplates (Packard Instruments, Meriden, Conn.) coated with the LB3.1 antibody and determining bound counts per minute using the TopCount microscintillation counter (Packard Instruments).

purified HLA DRB1*1201 = molecular target: T6, purified HLA DRB1*1201 (Homo sapiens, UniProt P01903+P01911, A100R/A169T/D57E/D86V/F55L/H45Y/K41T/L162R/M171V/P40S/Q125H/Q178H/Q39Y/Q99D/R42G/S66L/T262R/V114A/V67L/W38E/Y59H/Y61H/Y89S); assay: HLA-DR radioligand binding inhibition assay, DRB1*1201
T6 construct: purified from EBV transformed homozygous cell lines or single MHC allele transfected 721.221, C1R, or fibroblast lines; made in house
Procedure, shortened: (§3)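 Purified, solubilized HLA-DR molecules (1 μM to 1 nM) were co-incubated with 1-10 nM radiolabeled peptide for 2 days at room temperature or 37° C, pH 4 to 7, with protease inhibitors. Complexes were captured on LB3.1-coated plates and bound counts measured by scintillation; competitor peptides were tested at 30 μg/mL to […] in 2-4 independent experiments.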

purified HLA DRB1*1501 = molecular target: T7, purified HLA DRB1*1501 (Homo sapiens, UniProt P01903+P01911); assay: HLA-DR radioligand binding inhibition assay, DRB1*1501
T7 construct: purified from EBV transformed homozygous cell lines or single MHC allele transfected 721.221, C1R, or fibroblast lines; made in house
Procedure, shortened: as §1

purified HLA DRB3*0101 = molecular target: T8, purified HLA DRB3*0101 (Homo sapiens, UniProt P01903+P79483); assay: HLA-DR radioligand binding inhibition assay, DRB3*0101; details: IC50 nM purified HLA DRB3 *0101, purified HLA DRB3*0101
T8 construct: purified from EBV transformed homozygous cell lines or single MHC allele transfected 721.221, C1R, or fibroblast lines; made in house
Procedure, shortened: as §3

purified HLA DRB4*0101 = molecular target: T9, purified HLA DRB4*0101 (Homo sapiens, UniProt P01903+P13762, G164S); assay: HLA-DR radioligand binding inhibition assay, DRB4*0101; details: IC50 nM purified HLA DRB4 *0101, purified HLA DRB4*0101
T9 construct: purified from EBV transformed homozygous cell lines or single MHC allele transfected 721.221, C1R, or fibroblast lines; made in house
Procedure, shortened: as §1

CSCC[C@H](NC(=O)CNC(=O)[C@H](CC(C)C)NC(=O)CNC(=O)[C@H](Cc1ccc(O)cc1)NC(=O)[C@@H](N)CS)C(=O)N[C@@H](CCC(=O)O)C(=O)N[C@@H](Cc1c[nH]cn1)C(=O)N[C@@H](CC(C)C)C(=O)N[C@@H](CCCNC(=N)N)C(=O)N[C@@H](CCC(=O)O)C(=O)N[C@H](C(=O)N[C@@H](CCCNC(=N)N)C(=O)N[C@@H](C)C(=O)N[C@H](C(=O)O)C(C)C)C(C)C [Peptide 9019.0044]
IC50 (purified HLA DRB1*0404): 493 nM | IC50 (purified HLA DRB1*0405): 5120 nM | IC50 (purified HLA DRB1*0701): 271 nM | IC50 (purified HLA DRB1*0802): > 20000 nM | IC50 (purified HLA DRB1*0901): > 20000 nM | IC50 (purified HLA DRB1*1201): 19000 nM | IC50 (purified HLA DRB1*1501): 690 nM | IC50 (purified HLA DRB3*0101): > 20000 nM | IC50 (purified HLA DRB4*0101): 444 nM
